Data from patent publication US7429396B2, “Antifungal composition, its fungicidal effect on pathogenic dermatophytes, and process for inhibiting growth of fungi” (Bio-Botanica, Inc., priority 2003, dated 2008).

Test system: all microorganisms tested
Assay: Agar/broth dilution, inhibition of all microorganisms tested (Example 5)
Assay type: cell-based
Experimental: The Agar Dilution susceptibility method was used to test the effectiveness of the antimicrobial composition of Example 1. The organisms used were S. aureus ATCC 29213, E. coli ATCC 25922, S. typhimurium ATCC 14028, K. pneumoniae ATCC 10031, P. aeruginosa ATCC 27853, C. albicans ATCC 10231, and M. smegmatis ATCC 14468. The organisms were maintained on Tryptic Soy Agar (TSA) slants. For each week, the organisms were cultured in 10 ml of Tryptic Soy Broth (TSB). After incubation at 37° C. for 17 hours (48 hours for M. smegmatis), the organism suspensions were diluted with 10 ml of sterile saline as shown in Table 4. The mold Aspergillus niger was sustained on a Sabouraud Dextrose Agar slant. […]
The sample plates for the bacteria and yeast were prepared as follows: • Prepare 10 ml tubes of TSA and allow to cool to 50° C., • Add the calculated amount of the preservative or antimicrobial agent to 100 μl dimethylsulfoxide (DMSO) to achieve the specified concentration per ml TSA when 100 μl of the DMSO solution are added to a test tube containing 10 ml of TSA, • Vortex to homogenize the mixture in TSA, • Pour TSA and the preservative or antimicrobial agent into a properly labeled Petri dish, • Allow to cool overnight at room temperature. […]
The results for the bacteria and yeast were scored in relation to the growth present on the positive control plate. […]

- MIC capable of inhibiting all the tested organisms: 6.0 μl/ml
Structure (SMILES): OCCc1ccccc1 [Phenylethyl Alcohol]
